Experimental data taken from patent US8293537B2, “Systems and methods for hemoglobin analysis” (priority 2010, dated 2012).
Values joined by “and” are separate entries in the source; they are usually repeats but may differ in a detail not shown here. Identical values can stand only once.

What was measured:
Format in all cases: biochemical
peroxidase = assay: Peroxidase assay in saliva (Amplex Red); details: 500 ppm; pooled or unpooled saliva; 30 minutes; FIGS. 26-29
Description: To determine the effect of various GRAS compounds as inhibitors of peroxidase activity, a standard assay using Amplex® Red (Life Technologies), which releases a fluorescent oxidation product.
The test compounds, such as GRAS materials or cocktails of same, were prepared at a concentration of 500 ppm in distilled water. For the assay, 50 μl samples of test compounds were mixed with 20-30 μl of saliva (either “pooled” or “unpooled”) prior to the addition of Amplex® Red. […] Reactions were allowed to run for 30 minutes during these assays.

Lysozyme = target: T1, Lysozyme (Homo sapiens, UniProt P61626); assay: Lysozyme inhibition saliva screening (fluorescein-labeled Micrococcus lysodeikticus); details: 100% saliva samples (data not shown)
T1 sequence (P61626 19-148): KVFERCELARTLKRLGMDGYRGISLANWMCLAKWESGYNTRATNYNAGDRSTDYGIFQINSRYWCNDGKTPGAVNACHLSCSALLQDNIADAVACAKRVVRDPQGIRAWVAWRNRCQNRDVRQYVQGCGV
Description: Further details of these five compounds may also be seen in Table 5.

α-amylase = target: T2, α-amylase (Homo sapiens, UniProt P0DUB6); assay: α-Amylase inhibition saliva screening (chromogenic substrate, 405 nm); details: for Ave (absorbance at 405 nm) / individual reading (absorbance at 405 nm): saliva; for Ave (absorbance at 405 nm): 5,000 ppm; for individual reading (absorbance at 405 nm): test compound prepared at 5,000 ppm, 37° C.; for α-Amylase inhibition: 100% saliva samples, FIG. 11
T2 sequence (P0DUB6 16-511): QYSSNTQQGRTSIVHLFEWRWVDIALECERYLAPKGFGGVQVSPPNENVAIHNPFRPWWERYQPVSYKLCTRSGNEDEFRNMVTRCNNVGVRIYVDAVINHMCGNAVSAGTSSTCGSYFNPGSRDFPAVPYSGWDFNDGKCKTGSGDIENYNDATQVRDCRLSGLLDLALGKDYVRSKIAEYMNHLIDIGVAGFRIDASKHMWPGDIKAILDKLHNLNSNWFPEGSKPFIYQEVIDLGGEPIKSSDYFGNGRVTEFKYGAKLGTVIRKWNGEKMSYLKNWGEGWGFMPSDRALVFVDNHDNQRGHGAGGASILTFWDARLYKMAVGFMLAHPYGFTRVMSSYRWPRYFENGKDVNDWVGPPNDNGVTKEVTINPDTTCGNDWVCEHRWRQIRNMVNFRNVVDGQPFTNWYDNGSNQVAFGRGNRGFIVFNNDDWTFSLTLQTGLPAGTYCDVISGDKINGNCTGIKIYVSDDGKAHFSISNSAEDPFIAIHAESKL
Description: Further details of these five compounds may also be seen in Table 4.

Cn1c(=O)c2c(ncn2C)n(C)c1=O [CDI-33, Caffeine]
peroxidase inhibition (peroxidase): showed significant peroxidase inhibition capabilities

COc1ccc(O)c(C(C)(C)C)c1 [CDI-39, 3-tert--butyl-hydroxyanisole]
peroxidase inhibition (peroxidase): showed significant peroxidase inhibition capabilities

O=C(O)c1ccccc1 [CDI-40, Benzoic acid]
Lysozyme inhibition (Lysozyme): shown to inhibit Lysozyme

Aluminum potassium sulfate dodecahydrate [CDI-42]
Ave (absorbance at 405 nm) (α-amylase; 0 min): 0.92 | individual reading (absorbance at 405 nm) (α-amylase; 0 min): 0.80 and 1.13 and 0.90 and 0.84 | α-Amylase inhibition (α-amylase): shown to inhibit α-Amylase | individual reading (absorbance at 405 nm) (α-amylase; 5 min): 1.65 and 2.15 and 1.80 and 1.81 | individual reading (absorbance at 405 nm) (α-amylase; 15 min): 2.37 and 2.38 and 2.25 and 2.17 | peroxidase inhibition (peroxidase): showed significant peroxidase inhibition capabilities

Aluminum sulfate hydrate [CDI-34]
Ave (absorbance at 405 nm) (α-amylase; 0 min): 0.40 | individual reading (absorbance at 405 nm) (α-amylase; 0 min, sulfate hydrate): 0.40 (2×) and 0.36 and 0.45 | α-Amylase inhibition (α-amylase): shown to inhibit α-Amylase | Ave (absorbance at 405 nm) (α-amylase; 5 min): 0.50 | individual reading (absorbance at 405 nm) (α-amylase; 5 min, sulfate hydrate): 0.49 and 0.50 (2×) and 0.52 | Ave (absorbance at 405 nm) (α-amylase; 15 min): 0.56 | individual reading (absorbance at 405 nm) (α-amylase; 15 min, sulfate hydrate): 0.53 and 0.61 and 0.54 and 0.56
